The results in this text go back to patent publication US10918645B2 (LIFEARC, priority 2016, dated 2021).

Holding throughout (type): biochemical
Common to all, as to settings: 1 μM inhibitor concentration

One assay relates to CK2. As to the kind of experiment: CK2 kinase selectivity assay. On the procedure:
CK2 (5-20 mU diluted in 20 mM Hepes pH7.5, 0.15 M NaCl, 0.1 mM EGTA, 0.1% Triton X-100, 5 mM DTT, 50% glycerol) is assayed against CKII peptide ([…]) in a final volume of 25.5 μl containing 20 mM Hepes pH 7.5, 0.15 M NaCl, 0.1 mM EDTA, 5 mM DTT, 0.1% Triton-X 100, CKII peptide (0.165 mM), 10 mM magnesium acetate and 0.005 mM [33P-g-ATP](500-1000 cpm/pmole) and incubated for 30 min at room temperature. Assays are stopped by addition of 5 μl of 0.5 M (3%) orthophosphoric acid and then harvested onto P81 Unifilter plates with a wash buffer of 50 mM orthophosphoric acid.

A further assay addresses HER4 (Homo sapiens (Human), UniProt Q15303). Kind of assay: HER4 kinase selectivity assay. As for the experimental part: HER4 (5-20 mU diluted in 50 mM Tris pH 7.5, 0.1 mM EGTA, 0.1% β-mercaptoethanol, 1 mg/ml BSA) is assayed against Poly Glut Tyr in a final volume of […] containing 50 mM Tris pH 7.5, 0.1 mM EGTA, 1 mg/ml Poly Glut Tyr, 10 mM magnesium acetate and 0.005 mM [33P-γ-ATP] (50-1000 cpm/pmole) and incubated for 30 min at room temperature. Assays are stopped by addition of 5 μl of 0.5 M (3%) orthophosphoric acid and then harvested onto P81 Unifilter plates with a wash buffer of 50 mM orthophosphoric acid.

A further assay deals with PRAK (Homo sapiens (Human), UniProt Q8IW41). Kind of assay: PRAK kinase selectivity assay. On the procedure:
PRAK (5-20 mU diluted in 50 mM Na-b-glycerophosphate pH 7.5, 0.1 mM EGTA, 0.1% b-mercaptoethanol, 1 mg/ml BSA) is assayed against […] in a final volume of 25.5 μl containing 50 mM Na-b-glycerophosphate pH 7.5, 0.1 mM EGTA, 30 μM substrate peptide, 10 mM magnesium acetate and 0.02 mM [33P-g-ATP] (50-1000 cpm/pmole) and incubated for 30 min at room temperature. Assays are stopped by addition of 5 μl of 0.5 M (3%) orthophosphoric acid and then harvested onto P81 Unifilter plates with a wash buffer of 50 mM orthophosphoric acid.

For another assay, the target named is PIM1 (Homo sapiens (Human), UniProt P11309). As to the kind of experiment: PIM1 kinase selectivity assay. On the procedure:
PIM1 (5-20 mU diluted in 50 mM Tris pH 7.5, 0.1 mM EGTA, 0.1% b-mercaptoethanol, 1 mg/ml BSA) is assayed against a substrate peptide ([…]) in a final volume of 25.5 μl containing 50 mM Tris pH 7.5, 0.05% b-mercaptoethanol, 300 μM substrate peptide, 10 mM magnesium acetate and 0.02 mM [33P-g-ATP] (50-1000 cpm/pmole) and incubated for 30 min at room temperature. Assays are stopped by addition of 5 μl of 0.5 M (3%) orthophosphoric acid and then harvested onto P81 Unifilter plates with a wash buffer of 50 mM orthophosphoric acid.

The target of another assay is HIPK2 (Homo sapiens (Human), UniProt Q9H2X6). Kind of assay: HIPK2 kinase selectivity assay. On the procedure: 5-20 mU of HIPK2 (diluted in 50 mM Tris (pH 7.5), […] EGTA, 1 mg/ml BSA, 0.1%, b-Mercaptoethanol) is assayed against MBP in a final volume of 25.5 μl containing 50 mM Tris (pH 7.5), 0.1 mM EGTA, 0.1%, b-Mercaptoethanol, 0.33 mg/ml MBP, 10 mM magnesium acetate and 0.005 mM [33P-g-ATP](500-1000 cpm/pmole) and incubated for 30 mins at room temperature. Assays are stopped by addition of 5 μl of 0.5M (3%) orthophosphoric acid. Assays are harvested onto P81 Unifilter plates using a wash buffer of 50 mM orthophosphoric acid.
Sequence of HIPK2 (Q9H2X6 whole entry, species assumed): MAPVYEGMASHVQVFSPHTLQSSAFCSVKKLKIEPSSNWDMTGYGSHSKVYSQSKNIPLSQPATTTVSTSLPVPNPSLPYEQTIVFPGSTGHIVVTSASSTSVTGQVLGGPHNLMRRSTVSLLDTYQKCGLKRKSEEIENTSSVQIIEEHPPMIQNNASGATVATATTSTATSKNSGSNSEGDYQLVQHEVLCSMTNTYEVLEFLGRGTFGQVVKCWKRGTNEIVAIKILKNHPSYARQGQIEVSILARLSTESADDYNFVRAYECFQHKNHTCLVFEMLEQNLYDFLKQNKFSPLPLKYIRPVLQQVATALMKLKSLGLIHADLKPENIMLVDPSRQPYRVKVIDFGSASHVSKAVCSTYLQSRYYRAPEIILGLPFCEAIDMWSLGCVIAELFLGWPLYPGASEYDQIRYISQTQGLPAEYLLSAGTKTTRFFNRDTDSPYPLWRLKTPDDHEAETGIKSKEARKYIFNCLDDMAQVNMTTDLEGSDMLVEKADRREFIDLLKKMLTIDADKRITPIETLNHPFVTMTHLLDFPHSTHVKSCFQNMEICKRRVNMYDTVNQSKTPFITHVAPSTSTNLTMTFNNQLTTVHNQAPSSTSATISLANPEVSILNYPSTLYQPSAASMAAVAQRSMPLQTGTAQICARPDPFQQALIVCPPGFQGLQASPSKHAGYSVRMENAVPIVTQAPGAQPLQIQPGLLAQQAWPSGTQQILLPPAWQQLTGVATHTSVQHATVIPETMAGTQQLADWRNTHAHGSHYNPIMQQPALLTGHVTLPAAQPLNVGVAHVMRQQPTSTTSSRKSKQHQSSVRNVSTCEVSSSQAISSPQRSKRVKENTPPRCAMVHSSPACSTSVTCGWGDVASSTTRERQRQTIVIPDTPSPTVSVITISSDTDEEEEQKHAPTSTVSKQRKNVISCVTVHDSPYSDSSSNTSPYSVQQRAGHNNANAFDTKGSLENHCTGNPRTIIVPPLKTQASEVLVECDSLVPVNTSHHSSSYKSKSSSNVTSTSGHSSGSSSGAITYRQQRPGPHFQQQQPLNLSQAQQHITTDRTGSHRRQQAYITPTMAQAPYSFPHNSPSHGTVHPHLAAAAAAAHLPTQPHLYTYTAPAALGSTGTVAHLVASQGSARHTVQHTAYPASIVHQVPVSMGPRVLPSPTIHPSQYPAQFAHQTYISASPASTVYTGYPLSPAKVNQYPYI

The target of the next assay is RIPK2 (Homo sapiens (Human), UniProt O43353). As to the kind of experiment: RIPK2 kinase selectivity assay. As for the experimental part:
RIPK2 (5-20 mU diluted in 50 mM Tris pH 7.5, 0.1 mM EGTA, 0.1% β-mercaptoethanol, 1 mg/ml BSA) is assayed against MBP in a final volume of […] containing 50 mM Tris pH 7.5, 0.1 mM EGTA, 0.33 mg/ml MBP, 10 mM magnesium acetate and 0.02 mM [33P-γ-ATP] (50-1000 cpm/pmole) and incubated for 30 min at room temperature. Assays are stopped by addition of 5 μl of 0.5 M (3%) orthophosphoric acid and then harvested onto P81 Unifilter plates with a wash buffer of 50 mM orthophosphoric acid.

A further assay concerns the target CAMKKb (Homo sapiens (Human), UniProt Q96RR4). As to the kind of experiment: CAMKKb kinase selectivity assay. On the procedure: 5-20 mU of CAMKKb (diluted in 50 mM Tris (pH 7.5), 0.1 mM EGTA, 1 mg/ml BSA, 0.1%, b-Mercaptoethanol) is assayed against substrate peptide ([…]) in a final volume of 25.5 μl containing 50 mM Tris (pH 7.5), 0.1 mM EGTA, 0.5 mM CaCl2, 0.3 μM calmodulin, 0.1%, b-Mercaptoethanol, 300 μM substrate peptide, 10 mM magnesium acetate and 0.02 mM [33P-g-ATP](500-1000 cpm/pmole) and incubated for 30 mins at room temperature. Assays are stopped by addition of 5 μl of 0.5M (3%) orthophosphoric acid. Assays are harvested onto P81 Unifilter plates using a wash buffer of 50 mM orthophosphoric acid.

Another assay has as its target PKBa (Homo sapiens (Human), UniProt P31749, S473D). As to the kind of experiment: PKBa kinase selectivity assay. As for the experimental part: ΔPH-PKBa-S473D (5-20 mU diluted in 50 mM Tris pH 7.5, 0.1 mM EGTA, 0.1% b-mercaptoethanol, 1 mg/ml BSA) is assayed against a modified Crosstide peptide […] in a final volume of 25.5 μl containing 50 mM Tris pH 7.5, 0.05% b-mercaptoethanol, 30 μM substrate peptide, 10 mM magnesium acetate and 0.005 mM [33P-g-ATP](50-1000 cpm/pmole) and incubated for 30 min at room temperature. Assays are stopped by addition of 5 μl of 0.5 M (3%) orthophosphoric acid and then harvested onto P81 Unifilter plates with a wash buffer of 50 mM orthophosphoric acid.

Sequence of PIM1 (P11309 whole entry, species assumed): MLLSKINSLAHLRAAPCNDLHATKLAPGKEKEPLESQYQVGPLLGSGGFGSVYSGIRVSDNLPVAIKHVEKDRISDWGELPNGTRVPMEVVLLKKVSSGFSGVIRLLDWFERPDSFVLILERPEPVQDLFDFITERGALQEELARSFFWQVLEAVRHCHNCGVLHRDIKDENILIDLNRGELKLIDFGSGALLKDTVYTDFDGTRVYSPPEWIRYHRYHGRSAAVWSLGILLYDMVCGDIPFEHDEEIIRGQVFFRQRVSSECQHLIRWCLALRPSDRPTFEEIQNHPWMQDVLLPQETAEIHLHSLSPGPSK
Sequence of RIPK2 (O43353 whole entry, species assumed): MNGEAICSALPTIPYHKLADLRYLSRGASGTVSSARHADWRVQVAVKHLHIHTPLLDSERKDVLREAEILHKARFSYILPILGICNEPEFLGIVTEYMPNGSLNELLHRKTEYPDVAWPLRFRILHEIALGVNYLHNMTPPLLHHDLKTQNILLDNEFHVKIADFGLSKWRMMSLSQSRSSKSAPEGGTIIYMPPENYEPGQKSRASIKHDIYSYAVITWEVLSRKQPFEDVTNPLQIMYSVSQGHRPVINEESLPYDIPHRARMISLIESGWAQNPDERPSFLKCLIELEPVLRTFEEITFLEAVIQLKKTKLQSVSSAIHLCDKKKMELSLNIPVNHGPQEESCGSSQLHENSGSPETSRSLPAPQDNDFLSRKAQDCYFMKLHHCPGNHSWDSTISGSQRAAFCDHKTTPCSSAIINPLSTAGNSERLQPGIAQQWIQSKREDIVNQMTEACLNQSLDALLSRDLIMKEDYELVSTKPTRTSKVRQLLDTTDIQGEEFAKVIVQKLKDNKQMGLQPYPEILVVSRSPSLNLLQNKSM
Sequence of HER4 (Q15303 26-1308, species assumed): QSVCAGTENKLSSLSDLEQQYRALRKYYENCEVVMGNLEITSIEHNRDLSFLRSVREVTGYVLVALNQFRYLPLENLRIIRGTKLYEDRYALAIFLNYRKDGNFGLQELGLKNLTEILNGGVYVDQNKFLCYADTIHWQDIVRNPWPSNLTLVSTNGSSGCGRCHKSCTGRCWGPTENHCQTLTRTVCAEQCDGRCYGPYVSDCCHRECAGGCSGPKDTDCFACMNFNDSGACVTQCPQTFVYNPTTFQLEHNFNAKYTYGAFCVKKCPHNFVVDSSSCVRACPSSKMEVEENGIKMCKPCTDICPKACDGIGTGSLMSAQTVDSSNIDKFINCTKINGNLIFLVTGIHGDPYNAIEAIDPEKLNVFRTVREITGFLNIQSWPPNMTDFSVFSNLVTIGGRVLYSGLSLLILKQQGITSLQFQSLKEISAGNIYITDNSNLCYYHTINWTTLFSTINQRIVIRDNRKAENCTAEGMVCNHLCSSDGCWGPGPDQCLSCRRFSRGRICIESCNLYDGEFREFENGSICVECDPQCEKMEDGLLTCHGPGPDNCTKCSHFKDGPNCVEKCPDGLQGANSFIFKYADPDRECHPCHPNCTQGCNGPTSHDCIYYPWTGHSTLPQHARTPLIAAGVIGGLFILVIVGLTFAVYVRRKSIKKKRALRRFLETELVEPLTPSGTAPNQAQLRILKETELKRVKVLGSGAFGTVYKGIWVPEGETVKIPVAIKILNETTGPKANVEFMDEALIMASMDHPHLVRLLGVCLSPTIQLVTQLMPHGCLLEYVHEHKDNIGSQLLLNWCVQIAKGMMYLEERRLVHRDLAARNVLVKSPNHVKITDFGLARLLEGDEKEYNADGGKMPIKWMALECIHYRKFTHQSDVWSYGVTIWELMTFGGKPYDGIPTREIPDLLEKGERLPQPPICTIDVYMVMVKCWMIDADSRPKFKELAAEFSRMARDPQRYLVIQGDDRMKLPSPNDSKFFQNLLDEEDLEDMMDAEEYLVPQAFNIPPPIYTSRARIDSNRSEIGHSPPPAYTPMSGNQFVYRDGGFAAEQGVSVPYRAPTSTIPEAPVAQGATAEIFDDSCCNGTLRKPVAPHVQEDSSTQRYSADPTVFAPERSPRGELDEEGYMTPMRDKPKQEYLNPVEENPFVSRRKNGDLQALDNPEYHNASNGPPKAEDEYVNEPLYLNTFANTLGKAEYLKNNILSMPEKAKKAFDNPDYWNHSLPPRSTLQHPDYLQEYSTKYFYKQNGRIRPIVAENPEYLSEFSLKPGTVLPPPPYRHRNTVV
Sequence of PKBa (P31749 118-480 S473D): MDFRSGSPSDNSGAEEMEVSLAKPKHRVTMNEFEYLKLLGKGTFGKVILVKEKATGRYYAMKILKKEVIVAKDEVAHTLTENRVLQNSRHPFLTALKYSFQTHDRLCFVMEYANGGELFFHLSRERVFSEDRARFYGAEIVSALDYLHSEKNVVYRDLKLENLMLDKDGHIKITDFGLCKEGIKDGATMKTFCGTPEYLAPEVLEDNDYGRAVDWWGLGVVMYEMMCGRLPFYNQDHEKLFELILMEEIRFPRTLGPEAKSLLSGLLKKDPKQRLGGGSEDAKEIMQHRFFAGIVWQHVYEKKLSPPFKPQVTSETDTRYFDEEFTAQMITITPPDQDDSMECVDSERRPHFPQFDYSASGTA
Sequence of PRAK (Q8IW41 whole entry, species assumed): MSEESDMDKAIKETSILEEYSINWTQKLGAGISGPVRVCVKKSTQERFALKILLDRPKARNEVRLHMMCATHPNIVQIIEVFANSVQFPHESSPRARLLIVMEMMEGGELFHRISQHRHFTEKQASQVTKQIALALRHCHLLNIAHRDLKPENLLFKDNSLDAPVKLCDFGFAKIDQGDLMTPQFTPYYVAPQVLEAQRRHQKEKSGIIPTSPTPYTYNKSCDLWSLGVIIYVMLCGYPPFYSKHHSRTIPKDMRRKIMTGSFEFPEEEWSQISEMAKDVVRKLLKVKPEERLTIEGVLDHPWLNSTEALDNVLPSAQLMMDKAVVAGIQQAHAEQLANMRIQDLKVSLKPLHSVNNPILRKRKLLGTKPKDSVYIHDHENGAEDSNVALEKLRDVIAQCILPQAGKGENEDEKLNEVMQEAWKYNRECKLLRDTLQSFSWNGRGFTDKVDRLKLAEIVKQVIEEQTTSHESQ

As for `c1cc2[nH]nc3c2c(n1)N(C1CCC1)CCC3` [Example 22, 6-cyclobutyl-6,7,8,9-tetrahydro-2H-1,2,5,6-tetraazabenzo[cd]azulene], the “percentage inhibition of CK2” value in the assay on CK2 is reported as 0 percentage. Besides, at HER4, the “percentage inhibition of HER4” value was 8 percentage. Also, the “percentage inhibition of PRAK” value on PRAK was 0 percentage. In addition, the “percentage inhibition of PIM1” value at PIM1 came to 0 percentage. The “percentage inhibition of HIPK2” value on HIPK2 is 11 percentage. In addition, on RIPK2, the “percentage inhibition of RIPK2” value is on record as 0 percentage. The “percentage inhibition of CAMKKb” value on CAMKKb was 5 percentage. The “percentage inhibition of PKBa” value on PKBa is reported as 3 percentage.

In the case of `c1cc2[nH]nc3c2c(n1)N(C1CCCC1)CCC3` [Example 23, 6-cyclopentyl-6,7,8,9-tetrahydro-2H-1,2,5,6-tetraazabenzo[cd]azulene], the “percentage inhibition of HER4” value on HER4 is on record as 3 percentage. The “percentage inhibition of PRAK” value at PRAK stood at 0 percentage. Further, the “percentage inhibition of PIM1” value at PIM1 turned out to be 0 percentage. Also, the “percentage inhibition of HIPK2” value on HIPK2 worked out at 3 percentage. Moreover, on RIPK2, the “percentage inhibition of RIPK2” value is recorded as 0 percentage. Moreover, the “percentage inhibition of CAMKKb” value on CAMKKb is 7 percentage. Also, on PKBa, the “percentage inhibition of PKBa” value was determined as 0 percentage.

Take `c1cc2[nH]nc3c2c(n1)N(C1CCOCC1)CCC3` [Example 29, 6-(tetrahydro-2H-pyran-4-yl)-6,7,8,9-tetrahydro-2H-1,2,5,6-tetraazabenzo[cd]azulene]: the “percentage inhibition of CK2” value in the assay on CK2 is on record as 0 percentage. Also, the “percentage inhibition of HER4” value at HER4 is listed as 10 percentage. At PRAK, the “percentage inhibition of PRAK” value is listed as 0 percentage. Moreover, on PIM1, the “percentage inhibition of PIM1” value was 0 percentage. The “percentage inhibition of HIPK2” value at HIPK2 came out at 3 percentage. Also, the “percentage inhibition of RIPK2” value on RIPK2 turned out to be 0 percentage. Moreover, the “percentage inhibition of CAMKKb” value on CAMKKb is 0 percentage. Moreover, the “percentage inhibition of PKBa” value on PKBa came to 0 percentage.

As to `CN1CCC(N2Cc3ccccc3-c3n[nH]c4ccnc2c34)CC1` [Example 55], the “percentage inhibition of CK2” value in the assay with CK2 is 11 percentage. Besides, on HER4, the “percentage inhibition of HER4” value was found to be 0 percentage. At PRAK, the “percentage inhibition of PRAK” value was 18 percentage. The “percentage inhibition of PIM1” value on PIM1 is 26 percentage. On HIPK2, the “percentage inhibition of HIPK2” value is 1 percentage. Moreover, the “percentage inhibition of RIPK2” value at RIPK2 is given as 7 percentage. For the same molecule, at CAMKKb, the “percentage inhibition of CAMKKb” value is on record as 0 percentage. Further, the “percentage inhibition of PKBa” value at PKBa is 1 percentage.

`CC(C)n1ncc2c1CN(C1CCN(C)CC1)c1nccc3[nH]nc-2c13` [Example 68]: in the assay with CK2, the “percentage inhibition of CK2” value was 4 percentage. In addition, the “percentage inhibition of HER4” value on HER4 was 1 percentage. Moreover, on PRAK, the “percentage inhibition of PRAK” value is 13 percentage. Also, the “percentage inhibition of PIM1” value on PIM1 is listed as 77 percentage. Besides, the “percentage inhibition of HIPK2” value at HIPK2 was 0 percentage. Besides, on RIPK2, the “percentage inhibition of RIPK2” value is on record as 0 percentage. The “percentage inhibition of CAMKKb” value on CAMKKb is on record as 0 percentage. Besides, on PKBa, the “percentage inhibition of PKBa” value stood at 0 percentage.
